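Grown in 96-well plates, cells were treated for 48 hours with each compound at five concentrations. Insufficient inhibition: endpoint recorded as highest concentration tested. At the GI50, growth is halved. The concentration for full growth arrest is given as TGI.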
Tests used:
Experiment in all cases: growth of human tumour cells (NCI), 48 h
COLO 205 colon = tested on: COLO 205 colon
DU-145 prostate = tested on: DU-145 prostate
RPMI-8226 leukemia = tested on: RPMI-8226 leukemia
UACC-62 melanoma = tested on: UACC-62 melanoma
NCI-H226 lung = tested on: NCI-H226 lung
SK-OV-3 ovarian = tested on: SK-OV-3 ovarian
CCRF-CEM leukemia = tested on: CCRF-CEM leukemia
M14 melanoma = tested on: M14 melanoma
A498 renal = tested on: A498 renal
CAKI-1 renal = tested on: CAKI-1 renal
TK-10 renal = tested on: TK-10 renal
SF-539 CNS = tested on: SF-539 CNS
HOP-62 NSCLC = tested on: HOP-62 NSCLC
PC-3 prostate = tested on: PC-3 prostate
BT-549 breast = tested on: BT-549 breast
UACC-257 melanoma = tested on: UACC-257 melanoma
OVCAR-8 ovarian = tested on: OVCAR-8 ovarian
IGROV1 ovarian = tested on: IGROV1 ovarian
SF-268 CNS = tested on: SF-268 CNS
SN12C renal = tested on: SN12C renal
SNB-75 CNS = tested on: SNB-75 CNS
SF-295 CNS = tested on: SF-295 CNS
786-0 renal = tested on: 786-0 renal
SK-MEL-28 melanoma = tested on: SK-MEL-28 melanoma
NCI-H23 lung = tested on: NCI-H23 lung
HS 578T breast = tested on: HS 578T breast
HT29 colon = tested on: HT29 colon
NCI-H522 lung = tested on: NCI-H522 lung
A549 NSCLC = tested on: A549 NSCLC
HCT-116 colon = tested on: HCT-116 colon
SK-MEL-5 melanoma = tested on: SK-MEL-5 melanoma
NCI-H460 lung = tested on: NCI-H460 lung
HL-60(TB) leukemia = tested on: HL-60(TB) leukemia
SR leukemia = tested on: SR leukemia
SNB-19 CNS = tested on: SNB-19 CNS
HCT-15 colon = tested on: HCT-15 colon
MALME-3M melanoma = tested on: MALME-3M melanoma
MOLT-4 leukemia = tested on: MOLT-4 leukemia
EKVX NSCLC = tested on: EKVX NSCLC
U251 CNS = tested on: U251 CNS
MDA-MB-231 breast = tested on: MDA-MB-231 breast
ACHN renal = tested on: ACHN renal
K-562 leukemia = tested on: K-562 leukemia
LOX IMVI melanoma = tested on: LOX IMVI melanoma
RXF 393 renal = tested on: RXF 393 renal
OVCAR-4 ovarian = tested on: OVCAR-4 ovarian
MCF7 breast = tested on: MCF7 breast
HCC-2998 colon = tested on: HCC-2998 colon
T-47D breast = tested on: T-47D breast
OVCAR-5 ovarian = tested on: OVCAR-5 ovarian
NCI/ADR-RES ovarian = tested on: NCI/ADR-RES ovarian
SW-620 colon = tested on: SW-620 colon
MDA-MB-435 = tested on: MDA-MB-435
OVCAR-3 ovarian = tested on: OVCAR-3 ovarian
UO-31 renal = tested on: UO-31 renal
KM12 colon = tested on: KM12 colon

CN(C)c1ccc(Nc2ncnc3ccccc23)cc1
GI50 (COLO 205 colon): > 100 µM | TGI (COLO 205 colon): > 100 µM | GI50 (DU-145 prostate): > 100 µM | TGI (DU-145 prostate): > 100 µM | GI50 (RPMI-8226 leukemia): > 100 µM | TGI (RPMI-8226 leukemia): > 100 µM | GI50 (UACC-62 melanoma): > 100 µM | TGI (UACC-62 melanoma): > 100 µM | GI50 (NCI-H226 lung): > 100 µM | TGI (NCI-H226 lung): > 100 µM | GI50 (SK-OV-3 ovarian): > 100 µM | TGI (SK-OV-3 ovarian): > 100 µM | GI50 (CCRF-CEM leukemia): > 100 µM | TGI (CCRF-CEM leukemia): > 100 µM | GI50 (M14 melanoma): > 100 µM | TGI (M14 melanoma): > 100 µM | GI50 (A498 renal): > 100 µM | TGI (A498 renal): > 100 µM | GI50 (CAKI-1 renal): > 100 µM | TGI (CAKI-1 renal): > 100 µM | GI50 (TK-10 renal): > 100 µM | TGI (TK-10 renal): > 100 µM | GI50 (SF-539 CNS): > 100 µM | TGI (SF-539 CNS): > 100 µM | GI50 (HOP-62 NSCLC): > 100 µM | TGI (HOP-62 NSCLC): > 100 µM | GI50 (PC-3 prostate): > 100 µM | TGI (PC-3 prostate): > 100 µM | GI50 (BT-549 breast): > 100 µM | TGI (BT-549 breast): > 100 µM | GI50 (UACC-257 melanoma): > 100 µM | TGI (UACC-257 melanoma): > 100 µM | GI50 (OVCAR-8 ovarian): > 100 µM | TGI (OVCAR-8 ovarian): > 100 µM | GI50 (IGROV1 ovarian): > 100 µM | TGI (IGROV1 ovarian): > 100 µM | GI50 (SF-268 CNS): > 100 µM | TGI (SF-268 CNS): > 100 µM | GI50 (SN12C renal): > 100 µM | TGI (SN12C renal): > 100 µM | GI50 (SNB-75 CNS): > 100 µM | TGI (SNB-75 CNS): > 100 µM | GI50 (SF-295 CNS): > 100 µM | TGI (SF-295 CNS): > 100 µM | GI50 (786-0 renal): > 100 µM | TGI (786-0 renal): > 100 µM | GI50 (SK-MEL-28 melanoma): > 100 µM | TGI (SK-MEL-28 melanoma): > 100 µM | GI50 (NCI-H23 lung): > 100 µM | TGI (NCI-H23 lung): > 100 µM | GI50 (HS 578T breast): > 100 µM | TGI (HS 578T breast): > 100 µM | GI50 (HT29 colon): > 100 µM | TGI (HT29 colon): > 100 µM | GI50 (NCI-H522 lung): > 100 µM | TGI (NCI-H522 lung): > 100 µM | GI50 (A549 NSCLC): > 100 µM | TGI (A549 NSCLC): > 100 µM | GI50 (HCT-116 colon): > 100 µM | TGI (HCT-116 colon): > 100 µM | GI50 (SK-MEL-5 melanoma): > 100 µM | TGI (SK-MEL-5 melanoma): > 100 µM | GI50 (NCI-H460 lung): > 100 µM | TGI (NCI-H460 lung): > 100 µM | GI50 (HL-60(TB) leukemia): > 100 µM | TGI (HL-60(TB) leukemia): > 100 µM | GI50 (SR leukemia): 54.3 µM | TGI (SR leukemia): > 100 µM | GI50 (SNB-19 CNS): > 100 µM | TGI (SNB-19 CNS): > 100 µM | GI50 (HCT-15 colon): > 100 µM | TGI (HCT-15 colon): > 100 µM | GI50 (MALME-3M melanoma): > 100 µM | TGI (MALME-3M melanoma): > 100 µM | GI50 (MOLT-4 leukemia): 18.8 µM | TGI (MOLT-4 leukemia): > 100 µM | GI50 (EKVX NSCLC): > 100 µM | TGI (EKVX NSCLC): > 100 µM | GI50 (U251 CNS): > 100 µM | TGI (U251 CNS): > 100 µM | GI50 (MDA-MB-231 breast): > 100 µM | TGI (MDA-MB-231 breast): > 100 µM | GI50 (ACHN renal): > 100 µM | TGI (ACHN renal): > 100 µM | GI50 (K-562 leukemia): > 100 µM | TGI (K-562 leukemia): > 100 µM | GI50 (LOX IMVI melanoma): > 100 µM | TGI (LOX IMVI melanoma): > 100 µM | GI50 (RXF 393 renal): > 100 µM | TGI (RXF 393 renal): > 100 µM | GI50 (OVCAR-4 ovarian): > 100 µM | TGI (OVCAR-4 ovarian): > 100 µM | GI50 (MCF7 breast): > 100 µM | TGI (MCF7 breast): > 100 µM | GI50 (HCC-2998 colon): > 100 µM | TGI (HCC-2998 colon): > 100 µM | GI50 (T-47D breast): > 100 µM | TGI (T-47D breast): > 100 µM | GI50 (OVCAR-5 ovarian): > 100 µM | TGI (OVCAR-5 ovarian): > 100 µM | GI50 (NCI/ADR-RES ovarian): > 100 µM | TGI (NCI/ADR-RES ovarian): > 100 µM | GI50 (SW-620 colon): > 100 µM | TGI (SW-620 colon): > 100 µM | GI50 (MDA-MB-435): > 100 µM | TGI (MDA-MB-435): > 100 µM | GI50 (OVCAR-3 ovarian): > 100 µM | TGI (OVCAR-3 ovarian): > 100 µM | GI50 (UO-31 renal): > 100 µM | TGI (UO-31 renal): > 100 µM | GI50 (KM12 colon): > 100 µM | TGI (KM12 colon): > 100 µM

— PubChem BioAssay (NCI)
